Patent US6264994A, “Compositions for treating alzheimer's disease and other amyloidoses” (priority 1998, dated 2001)
Structures can show the parent of a compound that is named as a salt.

Tests used:
Aβ (1-40) = assay: Solid phase binding assay of Aβ--Aβ interactions (amyloid fibril growth); conditions: FIG. 3; 1.25 mM of test compounds
Source text: In Alzheimer's disease and other amyloidoses, amyloid fibril growth is believed to involve amyloid protein self-interactions (ie. Aβ--Aβ interactions). Any potential effective therapeutic agent for amyloid deposition, accumulation and/or persistence should also be capable of causing an inhibition of amyloid protein self-interactions. This is important for preventing any new amyloid fibril formation when treating Azheimer's disease patients at early stages of the disease. ELISA methodologies (i.e. solid phase binding assays) were therefore used to identify compounds which were capable of inhibiting Aβ--Aβ interactions (i.e. Alzheimer's amyloid fibril growth).
Aβ (1-40) was first labelled with biotin according to the following protocol. 1 mg of Aβ (1-40) (Bachem Inc., Torrance, Calif., USA; Lot #WL934) was dissolved in 200 μl of PBS (pH 8.0) and incubated for 1 week at 37° C. […] The amount of biotin incorporated was then determined using the HABA (2-(4'-hydroxyazo-benzene)benzoic acid) method (according to the manufacturer's protocol; Pierce).
2 μg of unlabelled Aβ in 40 μl of Tris-buffered saline containing 100 mM Tris-HCl, 50 mM NaCl, 3 mM NaN3, pH 7.0 (TBS) was allowed to bind overnight at 4° C. to microtiter wells (Nunc plates, Maxisorb). […] The reaction was stopped with 50 μl of 4N H2 SO4 and read on a Model 450 microplate reader (Biorad, Hercules, Calif., USA) at 490 nm. […]

Alzheimer's Aβ (1-40) = molecular target: T1, Alzheimer's Aβ (1-40) (Homo sapiens, UniProt P05067); assay: Thioflavin T fluorometry assay of Aβ (1-40) amyloid fibril formation over 1 week; assay type: biochemical; conditions: 1 hour to 1 week, 25 μM Aβ (1-40)
T1 construct: aggregates to fibrils, Thioflavin T fluorometry
T1 sequence (P05067 672-711): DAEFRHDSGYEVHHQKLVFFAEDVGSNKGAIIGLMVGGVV
Source text: A previously described method of measuring amyloid fibril formation utilizing Thioflavin T fluorometry (H Naiki et al, Lab. Invest. 65:104-110, 1991; H Levine III, Protein Sci. 2:404-410, 1993; H Levine III, Amyloid: Int. J. Exp. Clin. Invest. 2:1-6, 1995; H Naiki and K. Nakakuki, Lab. Invest. 74:374-383,1996) was employed initially to identify potential therapeutic compounds capable of inhibiting Alzheimer's Aβ amyloid fibril formation. Using this sensitive assay, any decreases or increases in fluorescence was previously shown to correlate with a decrease or increase in the amount of amyloid fibrils (H Naiki et al, Lab. Invest. 65:104-110, 1991; H Levine III, Protein Sci. 2:404-410, 1993; H Levine III, Amyloid: Int. J. Exp. Clin. Invest. 2:1-6, 1995; H Naiki and K. Nakakuki, Lab. Invest. 74:374-383, 1996), allowing one to determine the identification and extent of potential inhibitors and/or enhancers of amyloid fibril formation.
In one study, the effects of various compounds on Alzheimer's Aβ (1-40) fibril formation was assessed by Thioflavin T fluorometry. Thioflavin T is known to bind to fibrillar amyloid proteins, and an increase in fluorescence correlates with an increase in amyloid fibril formation, whereas a decrease in fluorescence correlates with a decrease in amyloid fibril formation. The Alzheimer's Aβ protein (1-40) when incubated at 37° C. tends to spontaneously form amyloid fibrils which increase in quantity over time. […]
To assess the effects of each compound on Aβ (1-40) fibril formation, 50 μl aliquots were taken from each tube for analysis at 1 hr, 1 day, 3 days, and 1 week. […] Fluorescence emission at 482 nm was measured on a Turner instrument-model 450 fluorometer at an excitation wavelength of 450 nm. For each determination,the fluorometer was calibrated by zeroing in the presence of the Thioflavin T reagent alone, and by setting the 50 ng/ml riboflavin (Sigma Chemical Co., St. Louis, Mo.) in the Thioflavin T reagent to 1800 fluorescence units. […]

[1] = system: Alzheimer's disease patients; conditions: literature; cited from earlier work
[2] = Example 1, FIG. 1, 1.25 mM test compound (PTI-00700 at 1:227 dilution)

N[C@H]1C(O)O[C@H](CO)[C@@H](O)[C@@H]1O (some centres unmarked) [PTI-00900, glucosamine]
effect on amyloid fibril growth / Aβ--Aβ interactions (Aβ (1-40)): no inhibitory effects
effect on Aβ (1-40) amyloid fibril formation (Alzheimer's Aβ (1-40); [2]): did not significantly inhibit

Nc1c2c(nc3ccccc13)CCCC2 [Tacrine hydrochloride]
cognitive improvement in Alzheimer's disease patients [1]: limited success
side effects [1]: liver toxicity

N[C@H]1C(O)O[C@H](CO)[C@@H](O)[C@@H]1O (some centres unmarked) [PTI-00800, glucosamine]
effect on amyloid fibril growth / Aβ--Aβ interactions (Aβ (1-40)): no inhibitory effects
effect on Aβ (1-40) amyloid fibril formation (Alzheimer's Aβ (1-40); [2]): did not significantly inhibit

N[C@H]1C(O)O[C@H](CO)[C@@H](O)[C@@H]1O (some centres unmarked) [PTI-00712, glucosamine]
effect on Aβ (1-40) amyloid fibril formation (Alzheimer's Aβ (1-40); Example 2, FIG. 2, 1.25 mM test compound): no inhibitory effect

COc1cc2c(cc1OC)C(=O)C(CC1CCN(Cc3ccccc3)CC1)C2 (centres unmarked) [donepezil]
cognitive improvement in Alzheimer's disease patients [1]: slight cognitive improvement
